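Tested at 5 concentrations; 48 h exposure; 96-well plates; endpoints linearly interpolated, else capped at highest concentration. At the GI50, growth is halved. At the TGI there is no net growth.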
Columns and labels:
Experiment in all cases: NCI anticancer screen, dose series, 48 h
786-0 renal = system: 786-0 renal
A498 renal = system: A498 renal
A549 NSCLC = system: A549 NSCLC
ACHN renal = system: ACHN renal
BT-549 breast = system: BT-549 breast
CAKI-1 renal = system: CAKI-1 renal
CCRF-CEM leukemia = system: CCRF-CEM leukemia
COLO 205 colon = system: COLO 205 colon
DU-145 prostate = system: DU-145 prostate
EKVX NSCLC = system: EKVX NSCLC
HCC-2998 colon = system: HCC-2998 colon
HCT-116 colon = system: HCT-116 colon
HCT-15 colon = system: HCT-15 colon
HL-60(TB) leukemia = system: HL-60(TB) leukemia
HOP-62 NSCLC = system: HOP-62 NSCLC
HOP-92 NSCLC = system: HOP-92 NSCLC
HS 578T breast = system: HS 578T breast
HT29 colon = system: HT29 colon
IGROV1 ovarian = system: IGROV1 ovarian
K-562 leukemia = system: K-562 leukemia
KM12 colon = system: KM12 colon
LOX IMVI melanoma = system: LOX IMVI melanoma
M14 melanoma = system: M14 melanoma
MALME-3M melanoma = system: MALME-3M melanoma
MCF7 breast = system: MCF7 breast
MDA-MB-231 breast = system: MDA-MB-231 breast
MDA-MB-435 = system: MDA-MB-435
MOLT-4 leukemia = system: MOLT-4 leukemia
NCI-H226 lung = system: NCI-H226 lung
NCI-H23 lung = system: NCI-H23 lung
NCI-H460 lung = system: NCI-H460 lung
NCI-H522 lung = system: NCI-H522 lung
NCI/ADR-RES ovarian = system: NCI/ADR-RES ovarian
OVCAR-3 ovarian = system: OVCAR-3 ovarian
OVCAR-4 ovarian = system: OVCAR-4 ovarian
OVCAR-5 ovarian = system: OVCAR-5 ovarian
OVCAR-8 ovarian = system: OVCAR-8 ovarian
PC-3 prostate = system: PC-3 prostate
RPMI-8226 leukemia = system: RPMI-8226 leukemia
RXF 393 renal = system: RXF 393 renal
SF-268 CNS = system: SF-268 CNS
SF-295 CNS = system: SF-295 CNS
SF-539 CNS = system: SF-539 CNS
SK-MEL-2 melanoma = system: SK-MEL-2 melanoma
SK-MEL-28 melanoma = system: SK-MEL-28 melanoma
SK-MEL-5 melanoma = system: SK-MEL-5 melanoma
SK-OV-3 ovarian = system: SK-OV-3 ovarian
SN12C renal = system: SN12C renal
SNB-19 CNS = system: SNB-19 CNS
SNB-75 CNS = system: SNB-75 CNS
SR leukemia = system: SR leukemia
SW-620 colon = system: SW-620 colon
T-47D breast = system: T-47D breast
TK-10 renal = system: TK-10 renal
U251 CNS = system: U251 CNS
UACC-257 melanoma = system: UACC-257 melanoma
UACC-62 melanoma = system: UACC-62 melanoma
UO-31 renal = system: UO-31 renal

Work on `CNCC/C=C1\c2cc3c(cc2-c2c1c1cc(OC)c(OC)cc1c(=O)n2C)OCO3` yielded a GI50 (786-0 renal) of 0.587 µM, a TGI (786-0 renal) of 33 µM and a GI50 (A498 renal) of 2.97 µM. It also gave a TGI (A498 renal) of 12 µM, a GI50 (A549 NSCLC) of 1.85 µM and a TGI (A549 NSCLC) of 18.8 µM. The GI50 (ACHN renal) was 0.167 µM, the TGI (ACHN renal) was 2.21 µM and the GI50 (BT-549 breast) was 3.66 µM. It also gave a TGI (BT-549 breast) of 22.5 µM, a GI50 (CAKI-1 renal) of 0.278 µM and a TGI (CAKI-1 renal) of 5.92 µM. The GI50 (CCRF-CEM leukemia) was less than 0.01 µM, the GI50 (COLO 205 colon) was 1.73 µM and the TGI (COLO 205 colon) was 41.2 µM. It also gave a GI50 (DU-145 prostate) of 0.428 µM, a TGI (DU-145 prostate) of 8.84 µM and a GI50 (EKVX NSCLC) of 2.36 µM. It also gave a TGI (EKVX NSCLC) of 18.3 µM, a GI50 (HCC-2998 colon) of 3.41 µM and a TGI (HCC-2998 colon) of 33.6 µM. It also gave a GI50 (HCT-116 colon) of 0.0679 µM, a GI50 (HCT-15 colon) of 0.585 µM and a TGI (HCT-15 colon) of 13 µM. The GI50 (HL-60(TB) leukemia) was 0.239 µM, the TGI (HL-60(TB) leukemia) was 2.57 µM and the GI50 (HOP-62 NSCLC) was 0.596 µM. The TGI (HOP-62 NSCLC) was 21.9 µM, the GI50 (HOP-92 NSCLC) was 0.301 µM and the TGI (HOP-92 NSCLC) was 2.74 µM. It also gave a GI50 (HS 578T breast) of 8.88 µM, a TGI (HS 578T breast) of 38.9 µM and a GI50 (HT29 colon) of 0.21 µM. For the same molecule, the TGI (HT29 colon) was greater than 100 µM, the GI50 (IGROV1 ovarian) was less than 0.0505 µM and the GI50 (K-562 leukemia) was 0.196 µM. It also gave a GI50 (KM12 colon) of less than 0.0507 µM, a TGI (KM12 colon) of 0.504 µM and a GI50 (LOX IMVI melanoma) of 0.51 µM. The TGI (LOX IMVI melanoma) was 2.57 µM, the GI50 (M14 melanoma) was 0.621 µM and the TGI (M14 melanoma) was 17 µM. The GI50 (MALME-3M melanoma) was 0.419 µM, the TGI (MALME-3M melanoma) was 4.59 µM and the GI50 (MCF7 breast) was 0.161 µM. The TGI (MCF7 breast) was greater than 36.9 µM, the GI50 (MDA-MB-231 breast) was 1.78 µM and the TGI (MDA-MB-231 breast) was 13.6 µM. The GI50 (MDA-MB-435) was 0.836 µM, the TGI (MDA-MB-435) was 15 µM and the GI50 (MOLT-4 leukemia) was less than 0.01 µM. It also gave a GI50 (NCI-H226 lung) of 0.232 µM, a TGI (NCI-H226 lung) of 2.11 µM and a GI50 (NCI-H23 lung) of 1.33 µM. It also gave a TGI (NCI-H23 lung) of 7.75 µM, a GI50 (NCI-H460 lung) of 0.196 µM and a TGI (NCI-H460 lung) of 5.97 µM. For the same molecule, the GI50 (NCI-H522 lung) was 0.122 µM, the TGI (NCI-H522 lung) was 16.2 µM and the GI50 (NCI/ADR-RES ovarian) was 3.74 µM. For the same molecule, the TGI (NCI/ADR-RES ovarian) was greater than 45.2 µM, the GI50 (OVCAR-3 ovarian) was 1.04 µM and the TGI (OVCAR-3 ovarian) was 17.9 µM. The GI50 (OVCAR-4 ovarian) was 6.72 µM, the TGI (OVCAR-4 ovarian) was 44.8 µM and the GI50 (OVCAR-5 ovarian) was 4.51 µM. It also gave a TGI (OVCAR-5 ovarian) of 27.4 µM, a GI50 (OVCAR-8 ovarian) of 0.248 µM and a TGI (OVCAR-8 ovarian) of 6.55 µM. The GI50 (PC-3 prostate) was 0.534 µM, the TGI (PC-3 prostate) was 10.3 µM and the GI50 (RPMI-8226 leukemia) was 0.149 µM. For the same molecule, the GI50 (RXF 393 renal) was 1.51 µM, the TGI (RXF 393 renal) was 14.9 µM and the GI50 (SF-268 CNS) was 0.992 µM. For the same molecule, the TGI (SF-268 CNS) was 25.1 µM, the GI50 (SF-295 CNS) was 0.0811 µM and the TGI (SF-295 CNS) was 15.6 µM. It also gave a GI50 (SF-539 CNS) of 0.4 µM, a TGI (SF-539 CNS) of 5.85 µM and a GI50 (SK-MEL-2 melanoma) of 9.68 µM. It also gave a TGI (SK-MEL-2 melanoma) greater than 100 µM, a GI50 (SK-MEL-28 melanoma) of 11.8 µM and a TGI (SK-MEL-28 melanoma) greater than 69.4 µM. The GI50 (SK-MEL-5 melanoma) was 0.548 µM, the TGI (SK-MEL-5 melanoma) was 2.89 µM and the GI50 (SK-OV-3 ovarian) was 3.28 µM. The TGI (SK-OV-3 ovarian) was 23.6 µM, the GI50 (SN12C renal) was 0.207 µM and the TGI (SN12C renal) was 6.06 µM. The GI50 (SNB-19 CNS) was 1.08 µM, the TGI (SNB-19 CNS) was 23.1 µM and the GI50 (SNB-75 CNS) was 3.26 µM. The TGI (SNB-75 CNS) was 33.8 µM, the GI50 (SR leukemia) was less than 0.01 µM and the GI50 (SW-620 colon) was less than 0.0142 µM. For the same molecule, the TGI (SW-620 colon) was 16.4 µM, the GI50 (T-47D breast) was 4.19 µM and the TGI (T-47D breast) was 25.5 µM. The GI50 (TK-10 renal) was 0.941 µM, the TGI (TK-10 renal) was 8.56 µM and the GI50 (U251 CNS) was 0.309 µM. The TGI (U251 CNS) was 19.1 µM, the GI50 (UACC-257 melanoma) was 3.13 µM and the TGI (UACC-257 melanoma) was 12.4 µM. It also gave a GI50 (UACC-62 melanoma) of 0.344 µM, a TGI (UACC-62 melanoma) of 2.3 µM and a GI50 (UO-31 renal) of 0.548 µM. It also gave a TGI (UO-31 renal) greater than 100 µM.
